Experiments:
90% gray hair [1] = test: ELISA hair-binding activity of biotinylated peptides on hair bundles; set-up: species or system human; details: 20 μM biotinylated peptide in TBST and 1 mg/mL BSA, 1 hour at room temperature, 90% gray hair bundles, streptavidin-HRP detection; mean of at least three replicates
Description: Enzyme-linked immunosorbent assay (ELISA) was used to evaluate the hair-binding affinity of the biopanning selected peptide candidates (Example 1; biotinylated peptides SEQ ID NOs: 25, 27, 29, 30, and 32). The identified peptides along with a positive control peptide Gray3 (given as SEQ ID NO: 34; previously reported in co-pending U.S. patent application Ser. No. 11/251,715 corresponding to U.S. Patent Application Publication No. 2006/0073111) were synthesized using standard solid […] synthesis method (U.S. Ser. No. 11/251/715).
The resulting absorbance values, reported as the mean of at least three replicates, and the standard error of the mean (SEM) are given in Table 3.

90% gray hair [2] = details: substrate 90% gray hair; peptide concentration giving 50% of the maximum ELISA signal; calculated from Scatchard plots
Description: (§1) The MB50 provides an indication of the strength of the binding interaction or affinity of the components of the complex.
as §1
The hair samples were assembled in bundles consisting of 100 hairs about 1 cm long which were bundled together using narrow tape at one end. […] Peptide binding buffer consisting of various concentrations of biotinylated peptide in TBST and 1 mg/mL BSA was added to the hair bundles and incubated for 1 hour at room temperature, followed by 6 TBST washes. […] The results were plotted as A450 versus the concentration of peptide using GraphPad Prism 4.0 (GraphPad Software, Inc., San Diego, Calif.).

| Substance | Hair A405 nm (90% gray hair [1]) | MB50 (90% gray hair [2]) [nM] |
| --- | --- | --- |
| Gray3: positive control hair-binding peptide previously reported in U.S. Patent Application Publication No. 2006/0073111 (HDHKNQKETHQRHAA; Hair-binding peptide) [reference compound] | 0.448 | – |
| EGASVASASDSVDSSYYSR-GSSGK (biotin) [Aff15017] | 0.184 | – |
| SSNDSNVSWFHYYASGLTSSR-GSSG-SRKSSQKNPHHPKPPKKPTAR-GSSGK (biotin) [Aff15025] | 0.86 | – |
| SSEGASVASASDSVDSSYYSRKSSQKNPHHPKPPKKPTAR-GSSGK (biotin) [Aff15023] | 0.66 | – |
| VRPNLHRKAKAKPDHKQSENRKVPFYSH-GSSGK (biotin) [Aff15012] | 0.873 | 24 |
| SRKSSQKNPHHPKPPKKPTAR-GSSGK (biotin) [Aff15014] | 0.871 | 33 |

— patent publication US8273337B2, “Hair binding peptides and peptide-based hair reagents for personal care” (Affinergy Inc., priority 2007, dated 2012)
